Tests used:
[1] = test system: elastin; experiment: Gene expression analysis of elastin; type: in vivo, human; conditions: weeks 4 and 8; significant in groups-1 to 3 at week 8 (p<0.05)
Procedure: (§1) A double-blind randomized placebo-controlled trial was conducted using a temporal punch-biopsy model. The punch biopsy and topical application methodology used in the study is illustrated in FIG. 1, namely showing pre-injury pre-emptive priming (7-days), pre-injury pre-emptive priming (3-days), day of injury (immediate application on day 0), post-injury (delayed 2 weeks post injury) including biopsy time points and time of topical applications. Each group applied both placebo and topical formulations twice daily for the duration of the study until week 8, with only the starting time point differing between groups Participants were split into 4 groups (n=10 in each group) in order to compare different modes (timings) of commencement of the topical application: • Group-1: Pre-emptive Priming (7-days): pre-injury • Group-2: Pre-emptive Priming (3-days): pre-injury • Group-3: Immediate (0-day): day-of-injury • Group-4: Delayed (14-days): post-injury Clinical quantitative devices were used to objectively monitor cutaneous healing at weekly intervals and punch biopsies were performed on day 0 (uninjured skin) and at weeks 4 and 8 for protein and gene expression analyses. […] Excisional skin biopsies in upper arms were evaluated weekly with multiple quantitative devices over an 8-week period. […]

[2] = test system: langerin; experiment: Langerin immunohistochemical marker in scar biopsies; type: in vivo, human; conditions: week 4, group-1 only (7-day pre-injury priming), p=0.02
Procedure: as §1

[3] = test system: human skin scarring model; experiment: Viscoelasticity of scars by clinical elastin probe; type: in vivo
Procedure: (§2) A double-blind randomized placebo-controlled trial was conducted using a temporal punch-biopsy model. The punch biopsy and topical application methodology used in the study is illustrated in FIG. 1, namely showing pre-injury pre-emptive priming (7-days), pre-injury pre-emptive priming (3-days), day of injury (immediate application on day 0), post-injury (delayed 2 weeks post injury) including biopsy time points and time of topical applications. Each group applied both placebo and topical formulations twice daily for the duration of the study until week 8, with only the starting time point differing between groups Participants were split into 4 groups (n=10 in each group) in order to compare different modes (timings) of commencement of the topical application: • Group-1: Pre-emptive Priming (7-days): pre-injury • Group-2: Pre-emptive Priming (3-days): pre-injury • Group-3: Immediate (0-day): day-of-injury • Group-4: Delayed (14-days): post-injury Clinical quantitative devices were used to objectively monitor cutaneous healing at weekly intervals and punch biopsies were performed on day 0 (uninjured skin) and at weeks 4 and 8 for protein and gene expression analyses. In the trial, topical EGCG and a placebo topical were applied twice daily for the duration of the trial until week 8 with only the starting time points differing between groups. […]

[4] = test system: zone of injury; conditions: topical EGCG, zonal priming; cited from earlier work
[5] = test system: human skin scarring model; experiment: Skin thickness by high frequency ultrasound (HFUS); type: in vivo; conditions: significant in group-1 week 8 (p=0.002); group-2 weeks 6, 8; group-3 weeks 5-8; group-4 weeks 3, 5-8 (p<0.01)
Procedure: as §2, with “[…] Structural changes in” for “In”, “scars were assessed clinically by high frequency ultrasound (HFUS)” for “trial, topical EGCG”, “elasticity probe, and elastin and collagen markers.” for “a placebo topical were applied twice daily for the duration of the trial until week 8 with only the starting time points differing between groups.”

O=C(OC1Cc2c(O)cc(O)cc2OC1c1cc(O)c(O)c(O)c1)c1cc(O)c(O)c(O)c1 (single isomer, unassigned; (-)) [EGCG, (-)-epigallocatechin-3-gallate]
Elastin gene expression, EGCG-treated samples compared to placebo [1]: upregulation | langerin reduction in EGCG-treated samples compared to placebo [2]: 13% | Elasticity (viscoelasticity), EGCG-treated arms compared to placebo-treated arms ([3]; group-1 weeks 1, 7, 8, group-2 week 8, group-3 week 8, group-4 week 7): significantly increased | Elasticity, between group comparison, group-1 vs group-4 ([3]; week 8, p=0.029): significantly increased elastin more than group-4 | Scar outcome, immediate application to zone of injury compared with delayed application two-weeks post-wounding [4]: reduced scar thickness and angiogenesis, plus increased hydration and elasticity | HFUS skin thickness, EGCG scars compared to placebo scars [5]: lower
